Measurements as given in patent US20240199676A1, “ANTIVIRAL COMPOUNDS AND METHODS OF MAKING AND USING THE SAME” (Gilead Sciences, Inc., priority 2022, published 2024).
pEC50: −log10 of the molar value.

Columns and labels:
[1] = GI S9 stability (Ex. Z), dog intestinal S9; assay type: in vitro ADME; details: pooled intestinal S9 fractions; dog intestinal S9, 1.0 mg/mL protein, 2 μM substrate, pH 7.4; read-out: GIS9 DOG T½ (per Ex. Z)
Protocol: Example Z: GI S9 stability data:
Stock solutions of test compounds in dimethyl sulfoxide (DMSO) having a final concentration of 10 mM were prepared and used in all experiments. Sekisui XenoTech (Kansas City, KS) provided pooled intestinal S9 fractions. All other chemicals were purchased from Sigma-Aldrich (St. Louis, MO) or VWR (West Chester, PA). Internal Standard/Quench (IS/Q) used to stop reactions was 100 nM labetalol in (by volume) methanol (10%) and acetonitrile (90%).
Stability in Intestinal S9 Fractions: Duplicate aliquots of test compound or positive control substrate were added to S9 stock diluted with phosphate buffered saline (137 mM NaCl, 2.7 mM KCl, 10 mM phosphate buffer), pH 7.4, to obtain a protein concentration of 1.0 mg/mL. The metabolic reactions were initiated by the addition of the substrates to the S9 reaction mixture to a final concentration of 2 μM. At 0, 10, 20, 30, 60 and 120 min, 25 μL aliquots of the reaction mixture were transferred to plates containing 225 μl of IS/Q solution. After quenching, the plates were centrifuged at 3000×g for 30 minutes. 150 μL aliquots of each supernatant were dried down then reconstituted with 300 μL water. Aliquots (10 μL) of the prepared samples were analyzed on a Thermo Q-Exactive mass spectrometer as described below.
Liquid Chromatography—Mass Spectrometry: Quantification of test compounds and control substrate was performed by analyte/internal standard peak area ratio (PAR) values measured on a Thermo Q-Exactive mass spectrometer coupled to a Dionex UltiMate 3000 HPLC with a Leap Technologies HTC PAL autosampler. The column used for analysis was a Waters Acquity BEH C18 (1.7 μm particle size, 2.1×50 mm). Mobile phase A consisted of 0.1% (v/v) formic acid in water. Mobile phase B consisted of 0.1% (v/v) formic acid in acetonitrile. Elution of analytes was achieved by a series of linear gradients varying the proportions of A and B. The mass spectrometer was calibrated on a weekly basis and mass tolerance of 5 ppm was used.
Metabolic stabilities in S9 fractions were determined by measuring the rates of disappearance of test compound and positive control substrate.
Data (% of substrate remaining) were plotted on a semi-log scale and fitted using an exponential decline model:
Where Ct—% of substrate remaining at time=t; C0—% of substrate remaining at time=0; t—time; T½—half-life The Half-life (T½) is determined by the following equation: […]
Assuming a first-order reaction, the slope (k) is extrapolated from the aforementioned plotted data.

[2] = tested on: Human Rhinovirus 1B (HRV1B) in H1-HeLa cells; assay: H1-HeLa HRV-CTG 384-well Assay (Ex. Y), HRV1B; assay type: cell-based; details: Rhinovirus A, 96 h; H1-HeLa cells, HRV1B MOI 0.5, 4 days, Celltiter-Glo; read-out: EC50 H1-HeLa_HRV1B_HRV-CTG 384-well Assay (per Ex. Y)
Description: Example Y: H1-HeLa HRV-CTG 384-well Assay
H1-Hela cell line (ATCC, Manassas, VA, Cat #CRL-1958) was maintained in Dulbecco's […] (DMEM) (Corning, New York, NY, Cat #15-018CM) supplemented with 10% fetal bovine serum (FBS) (Hyclone, Logan, UT, Cat #SH30071-03), and 1× Penicillin-Streptomycin-L-Glutamine (Corning, New York, NY, Cat #30-009-CI). Cells were passaged 2 times per week to maintain sub-confluent densities and were used for experiments at passage 5-30. The Human Rhinovirus 1B (HRV1B) (ATCC, Manassas, VA, Cat #VR-1645) , Human Rhinovirus 14 (HRV14) (ATCC, Manassas, VA, Cat #VR-284), and Human Rhinovirus 16 (HRV16) (ATCC, Manassas, VA, Cat #BR-283) was obtained through ATCC. Viral infection was monitored by determining viability of H1-HeLa cells as described below.
Test molecules are prepared in 100% DMSO in 384-well polypropylene plates (Greiner, Monroe, NC, Cat #784201) with 8 compounds per plate in grouped replicates of 4 at 10 serially diluted concentrations (1:3). The serially diluted compounds were transferred to low dead volume Echo plates (Labcyte, Sunnyvale, CA, Cat #LP-0200).
The test compounds were spotted to 384-well assay plates (Greiner, Monroe, NC, Cat#781091) at 200 nL per well using an Echo acoustic dispenser (Labcyte, Sunnyvale, CA). H1-HeLa cells were harvested and suspended in DMEM (supplemented with 2% FBS and 1× Penicillin-Streptomycin-L-Glutamine) and seeded to the pre-spotted assay plates at 5,000 cells per well in 30 μL. HRV1B, HRV14, and HRV16 was diluted in DMEM (supplemented with 2% FBS and 1× Penicillin-Streptomycin-L-Glutamine) at 97.1 million Infectious Units (IU) per mL, 151 million IU per mL and 221 million IU per mL respectively. 10 μL of virus per well was added to the assay plates containing cells and compounds, for an MOI of 0.5, 1.0, and 0.25 respectively. The assay plates were incubated for 4 days at 37° C. and 5% CO2. At the end of incubation, Celltiter-Glo (Promega, Madison, WI, Cat #(Ga7573) was prepared. The assay plates and Celltiter-Glo reagent were equilibrated to room temperature for at least 15 minutes. 40 μL per well of Celltiter-Glo reagent was added and the plates were incubated at room temperature for 15 minutes before reading the luminescence signal on an EnVision multimode plate reader (Perkin Elmer, Waltham, MA). Rupintrivir was used as positive control and DMSO was used as negative control. Values were normalized to the positive and negative controls (as 0% and 100% replication, respectively) and data was fitted using non-linear regression analysis by Gilead's dose response tool. The EC50 value for each compound was defined as the concentration reducing viral replication by 50%.

Structure (SMILES) | half-life at 2 μM [1] [h] | pEC50 [2]
N#C[C@]1(COC(=O)c2ccccc2)O[C@@H](c2ccc3c(N)ncnn23)[C@H](O)[C@@H]1O [Compound 2, ((2R,3S,4R,5S)-5-(4-aminopyrrolo[2,1-f][1,2,4]triazin-7-yl)-2-cyano-3,4-dihydroxytetrahydrofuran-2-yl)methyl benzoate] | 13.2 | 5.02
CC(C)CC(=O)OC[C@@]1(C#N)O[C@@H](c2ccc3c(N)ncnn23)[C@H](O)[C@@H]1O [Compound 3, ((2R,3S,4R,5S)-5-(4-aminopyrrolo[2,1-f][1,2,4]triazin-7-yl)-2-cyano-3,4-dihydroxytetrahydrofuran-2-yl)methyl 3-methylbutanoate] | 8.28 | 5.05
CC(=O)OC[C@@]1(C#N)O[C@@H](c2ccc3c(N)ncnn23)[C@H](O)[C@@H]1O [Compound 4, ((2R,3S,4R,5S)-5-(4-aminopyrrolo[2,1-f][1,2,4]triazin-7-yl)-2-cyano-3,4-dihydroxytetrahydrofuran-2-yl)methyl acetate] | 0.683 | 5.20
CCC(=O)OC[C@@]1(C#N)O[C@@H](c2ccc3c(N)ncnn23)[C@H](O)[C@@H]1O [Compound 5, ((2R,3S,4R,5S)-5-(4-aminopyrrolo[2,1-f][1,2,4]triazin-7-yl)-2-cyano-3,4-dihydroxytetrahydrofuran-2-yl)methyl propionate] | 1.9 | 5.07
CCCC(=O)OC[C@@]1(C#N)O[C@@H](c2ccc3c(N)ncnn23)[C@H](O)[C@@H]1O [Compound 6, ((2R,3S,4R,5S)-5-(4-aminopyrrolo[2,1-f][1,2,4]triazin-7-yl)-2-cyano-3,4-dihydroxytetrahydrofuran-2-yl)methyl butyrate] | 0.633 | 5.39
N#C[C@]1(COC(=O)C2CC2)O[C@@H](c2ccc3c(N)ncnn23)[C@H](O)[C@@H]1O [Compound 7, ((2R,3S,4R,5S)-5-(4-aminopyrrolo[2,1-f][1,2,4]triazin-7-yl)-2-cyano-3,4-dihydroxytetrahydrofuran-2-yl)methyl cyclopropanecarboxylate] | 10.6 | 4.94
N#C[C@]1(COC(=O)C2CCC2)O[C@@H](c2ccc3c(N)ncnn23)[C@H](O)[C@@H]1O [Compound 8, ((2R,3S,4R,5S)-5-(4-aminopyrrolo[2,1-f][1,2,4]triazin-7-yl)-2-cyano-3,4-dihydroxytetrahydrofuran-2-yl)methyl cyclobutanecarboxylate] | 0.167 | 5.48
CCC(CC)C(=O)OC[C@@]1(C#N)O[C@@H](c2ccc3c(N)ncnn23)[C@H](O)[C@@H]1O [Compound 9, ((2R,3S,4R,5S)-5-(4-aminopyrrolo[2,1-f][1,2,4]triazin-7-yl)-2-cyano-3,4-dihydroxytetrahydrofuran-2-yl)methyl 2-ethylbutanoate] | 8.5 | 4.67
CC(C)(C)C(=O)OC[C@@]1(C#N)O[C@@H](c2ccc3c(N)ncnn23)[C@H](O)[C@@H]1O [Compound 10, ((2R,3S,4R,5S)-5-(4-aminopyrrolo[2,1-f][1,2,4]triazin-7-yl)-2-cyano-3,4-dihydroxytetrahydrofuran-2-yl)methyl pivalate] | 4.48 | 5.01
CCC(CC)C(=O)Nc1ncnn2c([C@@H]3O[C@](C#N)(COC(=O)C(CC)CC)[C@@H](O)[C@H]3O)ccc12 [Compound 11, ((2R,3S,4R,5S)-2-cyano-5-(4-(2-ethylbutanamido)pyrrolo[2,1-f][1,2,4]triazin-7-yl)-3,4-dihydroxytetrahydrofuran-2-yl)methyl 2-ethylbutanoate] | 1.58 | 4.30
CC(C)[C@H](N)C(=O)OC[C@@]1(C#N)O[C@@H](c2ccc3c(N)ncnn23)[C@H](O)[C@@H]1O [Compound 12, ((2R,3S,4R,5S)-5-(4-aminopyrrolo[2,1-f][1,2,4]triazin-7-yl)-2-cyano-3,4-dihydroxytetrahydrofuran-2-yl)methyl L-valinate] | 0.0833 | 5.19
CC(C)(C)CC(=O)OC[C@@]1(C#N)O[C@@H](c2ccc3c(N)ncnn23)[C@H](O)[C@@H]1O [Compound 13, ((2R,3S,4R,5S)-5-(4-aminopyrrolo[2,1-f][1,2,4]triazin-7-yl)-2-cyano-3,4-dihydroxytetrahydrofuran-2-yl)methyl 3,3-dimethylbutanoate] | 12.6 | 4.30
Cc1ccc(C(=O)OC[C@@]2(C#N)O[C@@H](c3ccc4c(N)ncnn34)[C@H](O)[C@@H]2O)cc1 [Compound 14, ((2R,3S,4R,5S)-5-(4-aminopyrrolo[2,1-f][1,2,4]triazin-7-yl)-2-cyano-3,4-dihydroxytetrahydrofuran-2-yl)methyl 4-methylbenzoate] | 7.1 | 5.01
CC1(C(=O)OC[C@@]2(C#N)O[C@@H](c3ccc4c(N)ncnn34)[C@H](O)[C@@H]2O)CC1 [Compound 15, ((2R,3S,4R,5S)-5-(4-aminopyrrolo[2,1-f][1,2,4]triazin-7-yl)-2-cyano-3,4-dihydroxytetrahydrofuran-2-yl)methyl 1-methylcyclopropane-1-carboxylate] | 13.2 | 4.64
N#C[C@]1(COC(=O)CC2CCC2)O[C@@H](c2ccc3c(N)ncnn23)[C@H](O)[C@@H]1O [Compound 16, ((2R,3S,4R,5S)-5-(4-aminopyrrolo[2,1-f][1,2,4]triazin-7-yl)-2-cyano-3,4-dihydroxytetrahydrofuran-2-yl)methyl 2-cyclobutylacetate] | 1.48 | 5.50
CC1(C)CC(C(=O)OC[C@@]2(C#N)O[C@@H](c3ccc4c(N)ncnn34)[C@H](O)[C@@H]2O)C1 [Compound 17, ((2R,3S,4R,5S)-5-(4-aminopyrrolo[2,1-f][1,2,4]triazin-7-yl)-2-cyano-3,4-dihydroxytetrahydrofuran-2-yl)methyl 3,3-dimethylcyclobutane-1-carboxylate] | 0.8 | 5.49
N#C[C@]1(COC(=O)C2CCCC2)O[C@@H](c2ccc3c(N)ncnn23)[C@H](O)[C@@H]1O [Compound 18, ((2R,3S,4R,5S)-5-(4-aminopyrrolo[2,1-f][1,2,4]triazin-7-yl)-2-cyano-3,4-dihydroxytetrahydrofuran-2-yl)methyl cyclopentanecarboxylate] | 0.433 | 5.52
